From ChEMBL document CHEMBL1221369, “Cytotoxic isomalabaricane derivatives and a monocyclic triterpene glycoside from the sponge Rhabdastrella globostellata” (J Nat Prod, 2010)
Activity calls are given as the source filed them. The calls are words filed in the database; no cut-off is given here.

Key:
HL-60 (human) [1] = test: Cytotoxicity against human HL-60 cells at 100 uM by MTT assay
HL-60 (human) [2] = test: Cytotoxicity against human HL-60 cells by MTT assay
HL-60 (human) [3] = test: Effect on Bcl-2 expression in human HL-60 cells at 10 uM by immunoblot analysis
HL-60 (human) [4] = test: Induction of apoptosis in human HL-60 cells assessed as pro-caspase 3 cleavage at 10 uM by immunoblot analysis
HL-60 (human) [5] = test: Induction of apoptosis in human HL-60 cells at 10 uM after 72 hrs by FITC-conjugated annexin V staining-based FACS analysis

Row | SMILES | Activity (HL-60 (human) [1]) | IC50 (HL-60 (human) [2]) [µM] | Activity (HL-60 (human) [3]) | Activity (HL-60 (human) [4]) | Activity (HL-60 (human) [5]) [%]
1 | COC(=O)/C(C)=C1\C(=O)C[C@H]2[C@@]3(C)CC[C@H](O)C(C)(C)[C@@H]3CC[C@]12C | inactive | – | – | – | –
2 | COC(=O)/C(C)=C1\C(=O)C[C@H]2[C@@]3(C)CC[C@H](OC(C)=O)C(C)(C)[C@@H]3CC[C@]12C | inactive | – | – | – | –
3 | COC(=O)/C(C)=C1\C(=O)C[C@H]2[C@@]3(C)CC[C@H](OC(C)=O)[C@](C)(C(=O)OC)[C@@H]3CC[C@]12C | inactive | – | – | – | –
4 | C=C(C)[C@@H]1C[C@@H](OC(C)=O)[C@](C)(OC(C)=O)[C@H]1/C=C/C(C)=C1\C(=O)C[C@H]2[C@@]3(C)CC[C@H](OC(C)=O)C(C)(C)[C@@H]3CC[C@]12C [RHABDASTIN D DIACETATE] | – | 11 | – | – | –
5 | C=C(C)[C@@H]1C[C@H](O)[C@](C)(O)[C@H]1/C=C/C(C)=C1\C(=O)C[C@H]2[C@@]3(C)CC[C@H](OC(C)=O)C(C)(C)[C@@H]3CC[C@]12C [RHABDASTIN D] | – | 21 | inactive | Active | 18
6 | C=C(C)[C@@H]1C[C@@H](O)[C@](C)(O)[C@H]1/C=C/C(C)=C1\C(=O)C[C@H]2[C@@]3(C)CC[C@H](OC(C)=O)C(C)(C)[C@@H]3CC[C@]12C [RHABDASTIN E] | – | 29 | inactive | Active | 17
7 | CC(=O)O[C@H]1CC[C@@]2(C)[C@@H](CC[C@]3(C)/C(=C(C)/C=C/[C@H]4[C@H](C(C)(C)O)C[C@@H](O)[C@]4(C)O)C(=O)C[C@@H]23)C1(C)C [RHABDASTIN G] | – | 44 | – | – | –
